According to PMC11530130, “Peripherally restricted PICK1 inhibitor mPD5 ameliorates pain behaviors in murine inflammatory and neuropathic pain models” (JCI Insight, 2024):
“And” between values parts separate entries of the source, which are not always exact repeats. Equal values may be shown once.

Experiments:
[1] = tested on: mice, spared nerve injury (SNI) model; experiment: Ultrasonic vocalisation (USV) recordings at 37 kHz, SNI mice; assay type: in vivo, mouse; details: for Ultrasonic vocalisations, individual animals (Fig 5E): SNI mice
Description: Time spent in each compartment was […]
compartment was used to define three even groups.
Conditioning (DAY 2-9): Mice were injected s.c. with PBS, morphine (10 mg/kg) (RH Pharmacy, Denmark, Vnr. 475249), or 10 μmol/kg mPD5 immediately before being placed in and confined to the appropriate compartment for 40 min. Drug was paired to the least-preferred compartment, conditioning was alternated so that mice were never placed in the same compartment two days in a row, and the day on which they were exposed to drug was […]
Preference test (DAY 10): Mice were allowed to freely move between the two compartments […]
Ultrasonic vocalisation (USV) recordings.
Mice were left in Med-Associates square behavioral chambers (27 cm x 27 cm) to freely roam around for 60 min, four days in a row. […] On day three, both control and SNI mice were placed directly in the chambers and recorded for 60 min. On day four, control mice were injected s.c. with PBS, and SNI mice were injected with either 10 μmol/kg mPD5 or PBS immediately before being placed in the chambers and recorded for 60 min. The recordings were analyzed using the Avisoft SASLab Pro software (Version 5.02.07, Avisoft Bioacoustics) as described in (12), applying a fast fourier transformation (FFT) (1024 FTT length, 100% frame size, Blackman window, and 87.5% time window overlap). […]
To compare pain-relevant vocalizations, only short and constant USVs of 37 kHz were counted […]
Mice were pretreated with 10 μmol/kg mPD5, 10 mg/kg morphine (RH Pharmacy, Denmark, Vnr. 475249), or PBS 45 min before habituation to observation container (glass cylinder surrounded by mirrors on 2 sides) for 15 min. […] Mice were recorded for three min after i.pl. injection with capsaicin and euthanized the same day. Mice were scored manually for the amount of time spent paw licking within three min after capsaicin administration. […]

[2] = Plasma exposure after repeated s.c. administration (10 + 2 + 2 + 2 + 2 μmol/kg), LC-MS/MS; assay type: in vivo, mouse; details: for Plasma exposure, Fig 7B, individual mice: 10µmol/kg repeated
Description: Assessment of plasma levels and biodistribution of mPD5.
The mPD5 plasma exposure was determined by (WuXI AppTec (Shanghai, China)) and done following s.c. injection of three male C57BL/6N (vendor: VTLH) mice (7-9 weeks old, fasted) with each concentration of mPD5 (2, 10 and 50 µmol/kg) in sterile PBS. Blood samples were taken 30 min, 1 hour, 2 hours, 5 hours, and 12 hours following injection. For the repeated administration experiment, the initial s.c. injection of 10 µmol/kg was followed by 4 s.c. administrations of 2 µmol/kg with one hour between injections. Following the last injection, blood samples (0.03 mL from saphenous vein or other suitable site) were collected in EDTA- […]
K2 tubes at 5 min, 30 min, 1 hour, 5 hours, 12 hours, 24 hours, and 48 hours and centrifuged (app 4 ℃, 3200 g, 10 min) for collection of plasma. Plasma was transferred to 96 well plates and quick-frozen over dry ice and kept at -60 ℃ until LC-MS/MS analysis. For LC-MS/MS analysis plasma with 0.25% Triton X100 in 50% MeOH/water (6 µL) was quenched with 160 µL of IS1 (internal standard in MeOH (Labetalol & tolbutamide & Verapamil & dexamethasone & glyburide & Celecoxib 100 ng/mL for each)) and the mixture was vortexed for 10 min at 800 rpm and centrifuged for 15 min at 3220 × g at 4 ℃. An aliquot of 65 µL supernatant was transferred to a clean 96-well plate and centrifuged for 5 min at 3220 × g at 4 ℃, then the supernatant was directly injected for LC-MS/MS analysis. Plasma half-lives were determined from three points in the elimination phase. […]

CCCCCCCCCCCCCC(=O)N(CCOCCOCCC(=O)N[C@@H](Cc1c[nH]cn1)C(=O)N[C@@H](Cc1c[nH]c2ccccc12)C(=O)N[C@@H](CC(C)C)C(=O)N[C@@H](CCCCN)C(=O)N[C@H](C(=O)O)C(C)C)CCOCCOCCC(=O)N[C@@H](Cc1c[nH]cn1)C(=O)N[C@@H](Cc1c[nH]c2ccccc12)C(=O)N[C@@H](CC(C)C)C(=O)N[C@@H](CCCCN)C(=O)N[C@H](C(=O)O)C(C)C [mPD5, myristoyl-NPEG4-(HWLKV)2]
Ultrasonic vocalisations, individual animals (Fig 5E) ([1]; Baseline): 4 and 10 and 8 and 9 and 7 and 5
Ultrasonic vocalisations, individual animals (Fig 5E) ([1]; min 60-120 post injection): 3 and 8 and 1 and 7
effect on SNI-induced increase of vocalizations at 37 kHz ([1]; SNI, female mice, s.c. 10 μmol/kg, to the level of the naive mice): fully reversed
Plasma exposure, Fig 7B, individual mice ([2]; time 0.5): 3149 and 2827 and 2358
Plasma exposure, Fig 7B, individual mice ([2]; time 1): 3071 and 3116 and 2251
Plasma exposure, Fig 7B, individual mice ([2]; time 5): 8.66 and 8.95 and 4.61
half-life ([2]; C57BL/6N, mouse, plasma, sc, s.c. 10 μmol/kg followed by 4 x 2 μmol/kg in 1-hour intervals): 31.2 ± 1.2 min
